Assay results reported in patent publication US7815900B1, “Use of C3-C5 monosaccharides to protect keratinous fibers” (L'Oréal S.A., priority 2000, dated 2010).

What was measured:
[1] = Dry tensile strength (Instron) after heat cycles; details: for protection of dry tensile strength, in words: hair treated 5 cycles at 45° C. and at 130° C.
Description: (§1) Normal blonde hair was bleached with Clairol Basic White Bleach (40 volume H2O2) for 20 min at standard room temperature and humidity. The bleached swatches were rinsed with tap water, and soaked in an excess of deionized water for 2 hours. The swatches were air-dried and equilibrated for 48 hours prior to further treatment. Some of the bleached swatches were subsequently “permed” using a Reforming Lotion (10% TGA, pH 8.8, 20 minutes) and then neutralized with 2% H2O2, pH 3 (5 minutes). The bleached/permed swatches were rinsed with tap water, and soaked in an excess of deionized water for 2 hours. The swatches were air-dried and equilibrated for 48 hours prior to further treatment. The swatches that were heat treated were treated with 0.06M solutions of hexoses and pentoses for 10 min at 45° C. and then were heated for 12 cycles. The swatches were rinsed after the heat application.
(§2) Tensile strength was determined using both the Instron (50 dry fibers per tests) and the Dia-Stron (100 wet fibers per test), with the stretching rate of 100 mm/min. The following parameters were determined: Young's Modulus (N/m^2), Work to stretch 25% (J/m^2); Extension to Break (degree of elongation) (%); Work to Break (J/m^2).
(§3) Normal blonde hair was bleached with Clairol Basic White Bleach, 40 volume H2O2, for 20 min at room temperature. One batch of normal and bleached hair swatches underwent five heat cycles at 130° C., where one treatment cycle involved the following steps (1-4):
(§4) 1. The swatches were treated with 0.06 M solutions of monosaccharides in deionized water (about 1 wt %) for 10 min at 45° C.
(§5) 2. The treated swatches were blow-dried for 1 min.
(§6) 3. The heat was applied for 1 min in the form of a flat hair iron Windmere “Solid Gold” (130° C.).
(§7) 4. The swatches were rinsed and blot-dried with a paper-towel.
(§8) The treatment solutions included four pentoses (D-xylose, D-arabinose, D-lyxose, and D-ribose, 1% each) and one hexose (1.2% D-glucose). Deionized water was used as a control treatment. After the heat experiment, the hair was rinsed in water, air-dried, and equilibrated for 24 hours in the humidity chamber at 25° C. and 50% RH prior to further testing. These swatches are referred to as treated at 130° C.
(§9) A second batch of normal and bleached hair swatches were treated in a similar way and blow-dried, without application of the hot iron. The treatment was also repeated 5 times, the swatches from the second batch are referred to as treated at 45° C.
(§10) Both the bleached and the bleached/permed hair were subjected to heat treatment, as in Example 2. The heat treatment experiment involved 12 heat cycles including application of sugar or control solution before each heat application, and rinsing after the heat application. Deionized water was used as a control treatment.
(§11) After the heat experiment, the hair was rinsed in water, air-dried, and equilibrated for 24 h in the humidity chamber at 25° C. and 50% RH prior to further testing. The effect of the hexoses vs. pentoses on the dry tensile strength (INSTRON) and the alpha-structure (doublet peak area, DSC) was tested on the bleached hair (Table 13). The effect of a hexose (D-glucose) vs. a pentose (D-Xylose) on wet tensile strength (DIA-STRON) was tested both on the bleached and the bleached/permed hair (Table 14). Application of 0.06M solutions of pentoses protected the bleached and the bleached/permed hair against thermal damage (α-structure; wet and dry tensile strength).

[2] = DSC doublet peak area (α-structure) of hair after heat cycles; details: bleached/permed hair, 12 heat cycles, 0.06 M
Description: Normal blonde hair was bleached with Clairol Basic White Bleach (40 volume H2O2) for 20 min at standard room temperature and humidity. The bleached swatches were rinsed with tap water, and soaked in an excess of deionized water for 2 hours. The swatches were air-dried and equilibrated for 48 hours prior to further treatment. Some of the bleached swatches were subsequently “permed” using a Reforming Lotion (10% TGA, pH 8.8, 20 minutes) and then neutralized with 2% H2O2, pH 3 (5 minutes). The bleached/permed swatches were rinsed with tap water, and soaked in an excess of deionized water for 2 hours. The swatches were air-dried and equilibrated for 48 hours prior to further treatment. The swatches that were heat treated were treated with 0.06M solutions of hexoses and pentoses for 10 min at 45° C. and then were heated for 12 cycles. The swatches were rinsed after the heat application. In the DSC tests, finely cut hair (4-5 mg) was crimped in an aluminum pan that was punctured prior to each run. The samples were heated from 25° C. to 300° C., at a scanning rate of 20° C./min, with 5 runs per treatment. The results were averaged. Normal blonde hair was divided in two batches. The hair from the first batch was bleached with Clairol Basic White Bleach, 40 volume H2O2, for 20 min at room temperature and humidity. The hair from the second batch was first bleached as above, and then permed: Reforming lotion-10% Thioglycolic acid, pH 8.8, 20 min; neutralizer-2% hydrogen peroxide, 5 min. The oxidatively damaged hair was equilibrated for 24 hours prior to further testing. Both the bleached and the bleached/permed hair were subjected to heat treatment, as in Example 2. The heat treatment experiment involved 12 heat cycles including application of sugar or control solution before each heat application, and rinsing after the heat application. Deionized water was used as a control treatment. After the heat experiment, the hair was rinsed in water, air-dried, and equilibrated for 24 h in the humidity chamber at 25° C. and 50% RH prior to further testing. The effect of the hexoses vs. pentoses on the dry tensile strength (INSTRON) and the alpha-structure (doublet peak area, DSC) was tested on the bleached hair (Table 13). The effect of a hexose (D-glucose) vs. a pentose (D-Xylose) on wet tensile strength (DIA-STRON) was tested both on the bleached and the bleached/permed hair (Table 14). Application of 0.06M solutions of pentoses protected the bleached and the bleached/permed hair against thermal damage (α-structure; wet and dry tensile strength).

[3] = as above; details: for Doublet Peak Area: 0.06 M solutions
Description: as §1
(§12) In the DSC tests, finely cut hair (4-5 mg) was crimped in an aluminum pan that was punctured prior to each run. The samples were heated from 25° C. to 300° C., at a scanning rate of 20° C./min, with 5 runs per treatment. The results were averaged.
as §3, §4, §5, §6, §7, §8, §9
Normal blonde hair was divided in two batches. The hair from the first batch was bleached with Clairol Basic White Bleach, 40 volume H2O2, for 20 min at room temperature and humidity. The hair from the second batch was first bleached as above, and then permed: Reforming lotion-10% Thioglycolic acid, pH 8.8, 20 min; neutralizer-2% hydrogen peroxide, 5 min. The oxidatively damaged hair was equilibrated for 24 hours prior to further testing.
as §10, §11

[4] = Dry tensile strength (Instron) after heat cycles; details: normal blonde hair, 5 heat cycles at 130° C., 0.06 M solutions, n = 50 fibers
Description: as §2, §3, §4, §5, §6, §7, §8, §9

[5] = DSC doublet peak area (α-structure) of hair after heat cycles; details: normal blonde hair
Description: as §1, §12, §3, §4, §5, §6, §7, §8, §9
Normal blonde hair was subjected to 12 heat cycles, as described in Example 2, using the following treatment solutions: 0.1% D-Xylose (pentose), 0.1% D-Erythrose (tetrose), and 0.1% D-Glyceraldehyde (triose). Each of the C3 to C5 monosaccharides was effective in protecting or reducing the damage to the α-structure of the hair, as compared to water treatment (Table 15).
Normal blonde hair was subjected to 12 heat cycles, as described in Example 2, using 0.1 wt % of the pentose amine derivative, D-Lyxosylimine in deionized water.

[6] = bleached hair after 12 heat cycles, 0.06 M solutions, n = 100 fibers
[7] = dry bleached hair, 12 heat cycles, 0.06 M, INSTRON, n = 50 fibers
[8] = bleached hair after 12 heat cycles
[9] = dry, bleached hair, 5 cycles at 45° C., 0.06 M solutions, n = 50 fibers
[10] = bleached hair, 5 cycles at 45° C.
[11] = bleached hair, 5 heat cycles at 130° C.
[12] = 5 heat cycles at 130° C., 0.06 M solutions
[13] = 0.1 wt % solutions, 12 heat cycles at 130° C.
[14] = bleached hair, 5 heat cycles at 130° C., 0.06 M solutions, n = 50 fibers

Molecule	Work 25% (Dry) [1, 6]	Extension-Break [1, 7]	Work 25% [1, 7]	Work-Break [1, 7]	Young's Modulus [1, 7]	Doublet Peak Area [3, 8]	further results
O=CC[C@H](O)[C@H](O)CO [2-Deoxy-D-ribose]	1,032 +/− 163 J/m^2	55.35 +/− 7.52%	1,032 +/− 163 J/m^2	2,872 +/− 709 J/m^2	5,111 +/− 871 MN/m^2	9.63 +/− 2.87 J/g hair	Normalized area [2]: 6.43 +/− 1.87 J/g hair; protection effect (normalized α-structure peak area), in words ([3]; bleached and bleached/permed hair, 12 heat cycles): protection effect was found; Normalized area ([3]; bleached hair, 12 heat cycles, 0.06 M): 9.63 +/− 2.87 J/g hair
O=C[C@@H](O)[C@H](O)[C@H](O)CO [D-Arabinose]							Work 25% (Dry) [4]: 1,060 +/− 180 J/m^2; Work 25% [1, 9]: 1,147 +/− 191 J/m^2; protection of dry tensile strength, in words [1]: improved protection both at 45 °C and at 130 °C; Doublet Peak Area [3, 10]: 7.78 +/− 1.07 J/g hair; Doublet Peak Area [3, 11]: 8.22 +/− 0.90 J/g hair; Doublet Peak Area [5, 12]: 11.33 +/− 2.30 J/g hair
O=C[C@H](O)[C@H](O)CO [D-Erythrose]							Doublet Peak Area [5, 13]: 13.20 +/− 7.15 J/g hair
O=C(CO)[C@@H](O)[C@H](O)[C@H](O)CO [D-Fructose]	885.0 +/− 161.0 J/m^2	59.89 +/− 8.11%	885 +/− 161 J/m^2	2,644 +/− 644 J/m^2	4,492 +/− 852 MN/m^2	6.51 +/− 1.71 J/g hair	
O=C[C@H](O)[C@@H](O)[C@@H](O)[C@H](O)CO [D-Galactose]	945.8 +/− 168.9 J/m^2	58.82 +/− 6.21%	945.8 +/− 168.9 J/m^2	2,696 +/− 533 J/m^2	4,724 +/− 913 MN/m^2	5.39 +/− 2.29 J/g hair	
O=C[C@H](O)CO [D-Glyceraldehyde]							Doublet Peak Area [5, 13]: 13.47 +/− 3.03 J/g hair
O=C[C@@H](O)[C@@H](O)[C@H](O)CO [D-Lyxose]							Work 25% (Dry) [4]: 883.4 +/− 174.2 J/m^2; Work 25% (Dry) [1, 14]: 819.9 +/− 162.7 J/m^2; Work 25% [1, 9]: 1,157 +/− 228 J/m^2; protection of dry tensile strength, in words [1]: better improved protection at 45 °C; Doublet Peak Area [3, 10]: 8.26 +/− 3.02 J/g hair; Doublet Peak Area [3, 11]: 6.23 +/− 0.59 J/g hair; Doublet Peak Area [5, 12]: 8.35 +/− 0.81 J/g hair
O=C[C@@H](O)[C@@H](O)[C@H](O)[C@H](O)CO [D-Mannose]	914.9 +/− 122.0 J/m^2	57.33 +/− 5.98%	914.9 +/− 122 J/m^2	2,595 +/− 433 J/m^2	4,746 +/− 688 MN/m^2	5.47 +/− 1.27 J/g hair	
O=C[C@H](O)[C@H](O)[C@H](O)CO [D-Ribose]							Work 25% (Dry) [1, 14]: 1,064 +/− 171.1 J/m^2; Work 25% [1, 9]: 1,237 +/− 204 J/m^2; protection of dry tensile strength, in words [1]: improved protection both at 45 °C and at 130 °C; Doublet Peak Area [3, 10]: 7.80 +/− 1.87 J/g hair; Doublet Peak Area [3, 11]: 9.27 +/− 2.81 J/g hair
C[C@H](O)[C@@H](O)[C@@H](O)[C@H](O)C=O [L-Fucose]	838.2 +/− 134.5 J/m^2	57.01 +/− 6.18%	838.2 +/− 134.5 J/m^2	2,346 +/− 543 J/m^2	4,331 +/− 860 MN/m^2	5.26 +/− 1.59 J/g hair	
D-Lyxosylimine							Doublet Peak Area ([5]; 0.1 wt % Lyxosylimine, 12 heat cycles at 130° C.): 11.49 +/− 3.56 J/g hair; protection of the α-structure as compared to water treatment, in words ([5]; 0.1 wt % solutions, 12 heat cycles): protected the α-structure hair
